Measured values as given in article PMC12715762, “Discovery of VU6052254: A Novel, Potent M1 Positive Allosteric Modulator” (ACS Chemical Neuroscience, 2025).
Positions count from the first letter of the chain named. ≈ marks a conversion by molar mass, not a printed value. Where two headings read alike, the source gives them in different places.

What was measured:
[1] = kinetic / aqueous solubility; assay type: physicochemical; conditions: for solubility kinetic: aqueous medium, kinetic from dmso stock
mM1 = molecular target: T1, mM1 (Mus musculus, UniProt P12657); experiment: M1 PAM calcium mobilization assay (mouse); assay type: cell-based; conditions: mouse M1, n = 1
T1 construct: expressed in transfected cells
T1 sequence (P12657 1-460): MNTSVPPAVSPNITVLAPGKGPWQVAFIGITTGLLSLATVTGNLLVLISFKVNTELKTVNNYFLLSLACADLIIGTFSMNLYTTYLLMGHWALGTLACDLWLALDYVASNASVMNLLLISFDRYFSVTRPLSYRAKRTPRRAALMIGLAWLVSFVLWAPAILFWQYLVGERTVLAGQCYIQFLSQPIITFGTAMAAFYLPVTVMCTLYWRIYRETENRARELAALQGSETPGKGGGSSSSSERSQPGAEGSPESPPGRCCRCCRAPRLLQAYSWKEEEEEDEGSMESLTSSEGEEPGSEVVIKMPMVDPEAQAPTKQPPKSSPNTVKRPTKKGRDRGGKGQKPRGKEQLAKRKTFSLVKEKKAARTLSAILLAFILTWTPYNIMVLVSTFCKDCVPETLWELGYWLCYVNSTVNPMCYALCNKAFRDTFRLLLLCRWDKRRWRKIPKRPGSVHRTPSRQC

human M1 = molecular target: T2, human M1 (Homo sapiens, UniProt P11229); experiment: M1 agonist calcium mobilization assay (human); assay type: cell-based; conditions: for hM1 Agonist AChmax (%): human M1, % ACh max, n = 9
T2 sequence (P11229 1-460): T1 sequence (P12657 1-460) with V5A, S254T, K320R, G337A, V413I
Description: Procedures for Biological Experiments
Calcium mobilization assays:
All functional cell-based assays were performed in stable Chinese Hamster Ovary (CHO) cell lines constitutively expressing human M5 or human M1 receptors. For full muscarinic selectivity, CHO cells expressing human M3, human M2 plus Gqi5 or human M4 plus Gqi5 were used. Cells were plated at 15,000 cells per 20 µL per well in black 384-well, TC-treated, clear-bottomed plates (Greiner) in Ham’s F12 medium supplemented with 10% FBS and 20 mM HEPES. Cells were incubated overnight at 37 °C under 5% CO2. The following day, the medium was removed and replaced with 1.2 µM Fluo-4 AM (Invitrogen) in assay buffer (Hank’s Balanced Salt Solution supplemented with 20 mM HEPES and 2.5 mM Probenecid, pH 7.4) and the cells were incubated for 50 minutes at 37 °C under 5% CO2. Dye was then removed and replaced with 20 µL of fresh assay buffer. Test compounds at a 10 mM concentration in DMSO were serially diluted in DMSO (either 1:3 or 1:5 dilution) to create a 10-point concentration series. The DMSO solutions were then diluted in assay buffer resulting in compound solutions at 2-times the final assay concentration with the highest assay concentration of 30 µM. The compound plate, cell plate, and plates containing EC20 and EC80 acetylcholine concentrations were placed in a Hamamatsu FDSS 6000 or 7000 kinetic imaging plate reader equipped to measure Ex480/Em540 fluorescence. Data were collected at 1 frame per second. After 2 seconds of collecting baseline fluorescence, 20 µL of the compound solutions were added to the cell plate. This was followed by the addition of an EC20 concentration of acetylcholine at 142 seconds. […] The fluorescence signal was collected for a total of 300 seconds. […] Data were imported and analyzed in Dotmatics Informatics software. by normalizing all data in the individual kinetic traces to the initial fluorescence read. The magnitude of each agonist addition was then determined and normalized to the average maximum response. […] The IC50 determined using the EC80 of acetylcholine is the value reported. […]

MDCK-MDR1 (P-gp) = molecular target: T3, MDCK-MDR1 (P-gp) (Homo sapiens, UniProt P08183); experiment: MDCK-MDR1 permeability and efflux; assay type: in vitro ADME; design: Papp at 2 h / efflux ratio at 2 h: dose or concentration left out as unconfirmed; conditions: MDCK-MDR1
T3 construct: host or cells: MDR1-MDCK cell monolayers
T3 sequence (P08183 whole entry): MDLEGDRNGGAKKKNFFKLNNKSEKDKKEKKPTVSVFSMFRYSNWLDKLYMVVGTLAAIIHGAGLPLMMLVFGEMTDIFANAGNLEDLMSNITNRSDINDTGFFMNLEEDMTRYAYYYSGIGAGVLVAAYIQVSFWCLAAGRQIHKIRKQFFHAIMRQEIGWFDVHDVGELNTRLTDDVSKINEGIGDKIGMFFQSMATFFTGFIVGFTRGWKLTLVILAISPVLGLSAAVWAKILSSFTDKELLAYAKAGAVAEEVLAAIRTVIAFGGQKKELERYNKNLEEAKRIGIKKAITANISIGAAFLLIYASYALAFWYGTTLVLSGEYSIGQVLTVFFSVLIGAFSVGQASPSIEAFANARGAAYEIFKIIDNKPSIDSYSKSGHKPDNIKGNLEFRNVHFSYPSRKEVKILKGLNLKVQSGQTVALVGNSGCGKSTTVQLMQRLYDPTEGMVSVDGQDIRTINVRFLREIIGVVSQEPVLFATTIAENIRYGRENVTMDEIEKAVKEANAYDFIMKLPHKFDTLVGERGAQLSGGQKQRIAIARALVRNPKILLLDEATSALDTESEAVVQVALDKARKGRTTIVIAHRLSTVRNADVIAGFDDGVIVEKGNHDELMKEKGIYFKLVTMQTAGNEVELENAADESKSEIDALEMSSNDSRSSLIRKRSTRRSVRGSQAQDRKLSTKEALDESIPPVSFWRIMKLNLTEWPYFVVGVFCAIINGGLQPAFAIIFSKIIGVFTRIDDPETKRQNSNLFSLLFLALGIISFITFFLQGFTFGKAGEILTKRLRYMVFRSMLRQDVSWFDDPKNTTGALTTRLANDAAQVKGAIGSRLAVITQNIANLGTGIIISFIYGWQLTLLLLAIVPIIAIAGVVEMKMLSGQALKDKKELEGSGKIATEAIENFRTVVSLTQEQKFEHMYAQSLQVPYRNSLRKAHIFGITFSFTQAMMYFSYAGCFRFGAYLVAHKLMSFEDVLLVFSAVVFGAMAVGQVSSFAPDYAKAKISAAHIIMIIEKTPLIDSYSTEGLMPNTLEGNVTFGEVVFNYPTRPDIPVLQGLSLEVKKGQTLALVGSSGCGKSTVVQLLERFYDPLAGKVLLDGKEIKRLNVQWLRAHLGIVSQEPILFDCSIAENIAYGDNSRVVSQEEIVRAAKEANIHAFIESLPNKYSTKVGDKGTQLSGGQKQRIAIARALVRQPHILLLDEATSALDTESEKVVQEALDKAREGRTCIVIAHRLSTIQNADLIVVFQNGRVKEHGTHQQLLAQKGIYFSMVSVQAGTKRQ
Description: (§1) min, with an isocratic hold for 0.5 min, before transitioning to 10% B over 0.05 min. The column was re-equilibrated (1 min) before the next sample injection. The total run time was 2.55 min, and the HPLC flow rate was 0.5 ml/min. The source temperature was set at 500 °C, and mass spectral analyses were performed using a Turbo-Ion spray source in positive ionization mode (5.0-kV spray voltage) and using multiple-reaction monitoring of transitions specific for the analytes. All data were analyzed using AB Sciex Analyst 1.5.1 software. […]
(§2) In-vitro determination of blood-brain barrier penetration potential
(§3) Blood-brain barrier penetration was determined using MDR1-MDCK cell monolayers by Absorption Systems, following their protocol. In short, compounds were incubated at […] final concentration on one side of the cell monolayer for 2 hours. Compounds concentration on either side of the monolayer was determined by LC-MS/MS and apparent permeability and efflux ratio

P-gp (MDR1) = molecular target: T4, P-gp (MDR1) (Homo sapiens, UniProt P08183); experiment: MDCK-MDR1 permeability and efflux; assay type: in vitro ADME; design: Papp at 2 h / efflux ratio at 2 h: dose or concentration left out as unconfirmed; conditions: dog; for efflux ratio at 2 h: MDCK-MDR1 efflux ratio, read-out: P-gp ER
T4 construct: host or cells: MDR1-MDCK cell monolayers
T4 sequence (P08183 whole entry): as above
Description: as §1, §2, §3

CYP 2D6 = CYP 2D6 (Homo sapiens, UniProt P10635); experiment: CYP450 inhibition; assay type: in vitro ADME
Chain of CYP 2D6 (P10635 whole entry): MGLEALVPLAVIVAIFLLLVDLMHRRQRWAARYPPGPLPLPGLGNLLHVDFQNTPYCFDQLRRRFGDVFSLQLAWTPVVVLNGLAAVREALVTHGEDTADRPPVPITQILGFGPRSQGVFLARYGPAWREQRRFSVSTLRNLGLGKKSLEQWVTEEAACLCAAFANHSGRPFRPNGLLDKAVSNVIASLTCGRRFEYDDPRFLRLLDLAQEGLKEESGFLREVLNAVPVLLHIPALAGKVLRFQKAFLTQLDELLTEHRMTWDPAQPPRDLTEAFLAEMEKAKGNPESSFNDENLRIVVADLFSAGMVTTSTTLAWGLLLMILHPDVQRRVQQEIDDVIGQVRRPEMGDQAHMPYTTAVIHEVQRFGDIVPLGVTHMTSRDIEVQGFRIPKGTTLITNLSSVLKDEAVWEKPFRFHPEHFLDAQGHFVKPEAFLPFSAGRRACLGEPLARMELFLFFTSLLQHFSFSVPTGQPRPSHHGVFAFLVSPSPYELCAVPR

[2] = pH 2.2, pH 2.2, aqueous buffer, read-out: Kinetic solubility (pH = 2.2)
[3] = pH 6.8, pH 6.8, aqueous buffer, read-out: Kinetic solubility (pH = 6.8)

Row | Structure (SMILES) | solubility kinetic [1, 2] [µM] | solubility kinetic [1, 3] [µM] | aqueous solubility ([1]; result in words) | EC50 (mM1) [nM] | mM1 PAM, percentage in brackets (AChmax) (mM1) [%] | hM1 Agonist AChmax (%) (human M1) | Papp (MDCK-MDR1 (P-gp)) [×10⁻⁶ cm/s] | efflux ratio at 2 h (P-gp (MDR1)) | IC50 (CYP 2D6) [nM] | EC50 (human M1; human M1, n = 9, read-out: hM1 Agonist EC50) [nM] | Papp at 2 h (P-gp (MDR1); MDCK-MDR1, MDCK-MDR1) [×10⁻⁶ cm/s]
1 | Cn1cc2c(-c3cc(F)c(CN4Cc5ncccc5C4=O)c(F)c3)cccc2n1 [compound 1, reference compound] | 80.1 (≈ 31.3 µg/mL) | 9.75 (≈ 3.81 µg/mL) | low aqueous solubility | 728 | 56 | 20 | 31 | 1.6 |  |  | 
2 | Cn1cc2c(-c3cc(F)c(CN4Cc5ncccc5C4=O)c(F)c3)ccc(C(C)(C)O)c2n1 [compound 7] | 81.5 (≈ 36.6 µg/mL) | 67.8 (≈ 30.4 µg/mL) |  | 80 | 63 | 22 | 23.1 | 1.97 | > 30000 | 3640 | 23
